From patent US4888287A, “Rapid differentiation of fungi from bacteria using polyene antibiotics” (Eastman Kodak Company, priority 1986, dated 1989) come the findings set out here.

The first series in a line: Reduction potential E1/2 of the quinone nucleus of RIND compounds (Table I). It counts as physicochemical. The conditions noted are these: quinone nucleus with H in place of the releasing group; aqueous emulsion, DMF, nonionic surfactant, phosphate buffer pH 7; standard calomel electrode. An excerpt:
Examples of such nuclei are presented below.
Preferably, the E1/2 is from about +100 mV to about +400 mV as measured in water, or from about -650 to about -300 mV as measured in acetonitrile. […] Further details of measuring the E1/2 are described below prior to Table I. The desired E1/2 is achieved by appropriate electron withdrawing groups on the CAR-nucleus, or by a strained fused ring attached to the nucleus or by a combination of both.
Representative RIND compounds are listed in Table I below in reference to the following structure: [drawing 3] The E1/2 values in Table I were determined for the quinone nucleus of this structure having a hydrogen atom in place of [drawing 4] The E1/2 values (where available) were measured in an aqueous emulsion of the quinone dissolved in N,N-dimethylformamide, a nonionic surfactant (for example, TRITON X-100) and sodium phosphate buffer (pH 7). A standard calomel electrode was used as a standard. Some E1/2 values (denoted by *) were measured in acetonitrile using a saturated calomel electrode as a standard. E1/2 values not available are denoted by "NA".
In the case of `CC(C1=C(CN(C)C(=O)Oc2ccc(N=Nc3ccc([N+](=O)[O-])cc3S(C)(=O)=O)c3c(NS(=O)(=O)c4cccc(S(N)(=O)=O)c4)cccc23)C(=O)C(C(C)c2ccc([N+](=O)[O-])cc2)=C(CN(C)C(=O)Oc2ccc(N=Nc3ccc([N+](=O)[O-])cc3S(C)(=O)=O)c3c(NS(=O)(=O)c4cccc(S(N)(=O)=O)c4)cccc23)C1=O)c1ccc([N+](=O)[O-])cc1` (stereo not shown) [II], the E1/2 result is “+236 mV”. For `CN(CC1=C(c2ccc(C#N)cc2)C(=O)C2=C(CCCC2)C1=O)C(=O)Oc1ccc(N=Nc2ccc([N+](=O)[O-])cc2S(C)(=O)=O)c2c(NS(=O)(=O)c3cccc(S(N)(=O)=O)c3)cccc12` [IX], the E1/2 result is on record as “+220 mV”. On the same count and under the same terms, in the case of `CN(CC1=C(c2ccc(C(=O)O)cc2)C(=O)C2=C(CCCC2)C1=O)C(=O)Oc1ccc2c3c(cccc13)C(=O)C=C2` [RIND Compound XXXV] it was “+220 mV”; in that of `CC(C)NS(=O)(=O)c1ccc(C2=C(CN(C)C(=O)Oc3ccc(N=Nc4ccc([N+](=O)[O-])cc4S(C)(=O)=O)c4c(NS(=O)(=O)c5cccc(S(N)(=O)=O)c5)cccc34)C(=O)C3=C(CCCC3)C2=O)cc1` [VIII], “+212 mV”. Same read-out and setting: in the case of `CN(CC1=C(c2ccc([N+](=O)[O-])cc2)C(=O)C2=C(CCCC2)C1=O)C(=O)Oc1ccc(N=Nc2ccc([N+](=O)[O-])cc2S(C)(=O)=O)c2c(NS(=O)(=O)c3cccc(S(N)(=O)=O)c3)cccc12` [VII] it was “+236 mV”. With `CN(CC1=C(c2ccccc2)C(=O)C2=C(CCCC2)C1=O)C(=O)Oc1ccc(N=Nc2ccc([N+](=O)[O-])cc2S(C)(=O)=O)c2c(NS(=O)(=O)c3cccc(S(N)(=O)=O)c3)cccc12` [VI], the E1/2 result was “+180 mV”. Same read-out and setting: in the case of `CN(CC1=C(c2cccc([N+](=O)[O-])c2)C(=O)C2=C(CCCC2)C1=O)C(=O)Oc1ccc(N=Nc2ccc([N+](=O)[O-])cc2S(C)(=O)=O)c2c(NS(=O)(=O)c3cccc(S(N)(=O)=O)c3)cccc12` [V] it was “+214 mV”; in that of `CC(=O)c1ccc(C2=C(CN(C)C(=O)Oc3ccc(N=Nc4ccc([N+](=O)[O-])cc4S(C)(=O)=O)c4c(NS(=O)(=O)c5cccc(S(N)(=O)=O)c5)cccc34)C(=O)C3=C(CCCC3)C2=O)cc1` [XIII], “+212 mV”. `CCCCCCCCCCC(=O)c1ccc(C2=C(CN(C)C(=O)Oc3ccc(N=Nc4ccc([N+](=O)[O-])cc4S(C)(=O)=O)c4c(NS(=O)(=O)c5cccc(S(N)(=O)=O)c5)cccc34)C(=O)C3=C(CCCC3)C2=O)cc1` [XII]: the E1/2 result is recorded as “+206 mV”. Same read-out and setting: in the case of `CN(CC1=C(c2ccc(Br)cc2)C(=O)C2=C(CCCC2)C1=O)C(=O)Oc1ccc(N=Nc2ccc([N+](=O)[O-])cc2S(C)(=O)=O)c2c(NS(=O)(=O)c3cccc(S(N)(=O)=O)c3)cccc12` [XIV] it was “+192 mV”. Turning to `CN(CC1=C(c2ccccc2)C(=O)C2=C(C1=O)C1C=CC2C1)C(=O)Oc1ccc(N=Nc2ccc([N+](=O)[O-])cc2S(C)(=O)=O)c2c(NS(=O)(=O)c3cccc(S(N)(=O)=O)c3)cccc12` (stereo not shown) [XIX], the E1/2 entry is reported as “+242 mV”. The same measure, in the same setting: in the case of `CN(CC1=C(c2cc([N+](=O)[O-])cc([N+](=O)[O-])c2)C(=O)C2=C(CCCC2)C1=O)C(=O)Oc1ccc(N=Nc2ccc([N+](=O)[O-])cc2S(C)(=O)=O)c2c(NS(=O)(=O)c3cccc(S(N)(=O)=O)c3)cccc12` [XI] it was “+186 mV”. On the same count and under the same terms, the result for `CN(CC1=C(c2ccc(C#N)cc2)C(=O)C2=C(CC=CC2)C1=O)C(=O)Oc1ccc(N=Nc2ccc([N+](=O)[O-])cc2S(C)(=O)=O)c2c(NS(=O)(=O)c3cccc(S(N)(=O)=O)c3)cccc12` [XVII] reads “+240 mV”; that for `CCCCCCCCCCCCN(CC1=C(c2ccc(C#N)cc2)C(=O)C2=C(CCCC2)C1=O)C(=O)Oc1ccc(N=Nc2ccc([N+](=O)[O-])cc2S(C)(=O)=O)c2c(NS(=O)(=O)c3cccc(S(N)(=O)=O)c3)cccc12` [XVI], “+220 mV”; that for `CN(CC1=CC(=O)C2=C(CCCC2)C1=O)C(=O)Oc1ccc(N=Nc2ccc([N+](=O)[O-])cc2S(C)(=O)=O)c2c(NS(=O)(=O)c3cccc(S(N)(=O)=O)c3)cccc12` [XV], “+213 mV”. On to `Cc1cc(=O)oc2cc(OC(=O)N(C)CC3=C(c4cccc([N+](=O)[O-])c4)C(=O)C4=C(CCCC4)C3=O)ccc12` [XXIII], for which the E1/2 entry is listed as “+214 mV”. On the same count and under the same terms, the result for `CN(CC1=C(c2cc(Cl)ccc2Cl)C(=O)C2=C(CCC2)C1=O)C(=O)Oc1ccc(N=Nc2ccc([N+](=O)[O-])cc2S(C)(=O)=O)c2c(NS(=O)(=O)c3cccc(S(N)(=O)=O)c3)cccc12` [XXIV] reads “+236 mV”; that for `CN(CC1=C(c2ccc(C#N)cc2)C(=O)C2=C(CCCC2)C1=O)C(=O)Oc1ccc2c3c(cccc13)C(=O)C=C2` [XXIX], “+220 mV”. On the same count and under the same terms, in the case of `CC1CCC(C)C2=C1C(=O)C(CN(C)C(=O)Oc1ccc(N=Nc3ccc([N+](=O)[O-])cc3S(C)(=O)=O)c3c(NS(=O)(=O)c4cccc(S(N)(=O)=O)c4)cccc13)=C(c1ccccc1)C2=O` (stereo not shown) [XXVII] it was “+122 mV”; in that of `CCCCCCCCCCCCC1CC2=C(C1)C(=O)C(c1ccccc1)=C(CN(C)C(=O)Oc1ccc(N=Nc3ccc([N+](=O)[O-])cc3S(C)(=O)=O)c3c(NS(=O)(=O)c4cccc(S(N)(=O)=O)c4)cccc13)C2=O` (stereo not shown) [XXV], “+222 mV”.

As for `CN(CC1=C(c2ccc([N+](=O)[O-])cc2)C(=O)C2=C(CCCC2)C1=O)C(=O)Oc1ccc2c3c(cccc13)C(=O)C=C2` [XXXIII], the E1/2 result is “+236 mV”. The same measure, in the same setting: the result for `CN(CC1=C(c2cccc([N+](=O)[O-])c2)C(=O)C2=C(CCCC2)C1=O)C(=O)Oc1ccc2c3c(cccc13)C(=O)C=C2` [XXXII] reads “+214 mV”; that for `CN(CC1=C(c2cc(Cl)ccc2Cl)C(=O)C2=C(CCC2)C1=O)C(=O)Oc1ccc2c3c(cccc13)C(=O)C=C2` [XXXI], “+236 mV”. Still for that read-out and setting: in the case of `CC1=C(C)C(=O)C(c2ccccc2)=C(CN(C)C(=O)Oc2ccc(N=Nc3ccc([N+](=O)[O-])cc3S(C)(=O)=O)c3c(NS(=O)(=O)c4cccc(S(N)(=O)=O)c4)cccc23)C1=O` [XXXVI] it was “+144 mV”; in that of `CN(CC1=C(c2ccccc2)C(=O)C2=C(CCC2)C1=O)C(=O)Oc1ccc2c3c(cccc13)C(=O)C=C2` [XXX], “+222 mV”.

Turning to `CN(CC1=C(c2ccccc2)C(=O)C2=C(CCC2)C1=O)C(=O)Oc1ccc(N=Nc2ccc([N+](=O)[O-])cc2S(C)(=O)=O)c2c(NS(=O)(=O)c3cccc(S(N)(=O)=O)c3)cccc12` [XX], the E1/2 entry was “+222 mV”.

Turning to `COc1cccc(C2=C(CN(C)C(=O)Oc3ccc(N=Nc4ccc([N+](=O)[O-])cc4S(C)(=O)=O)c4c(NS(=O)(=O)c5cccc(S(N)(=O)=O)c5)cccc34)C(=O)C3=C(CCCC3)C2=O)c1` [X], the E1/2 entry was “+154 mV”.

The same series, now with this note: quinone nucleus with H in place of the releasing group; denoted *: measured in acetonitrile, saturated calomel electrode.
With `CN(CC1=C(c2ccccc2)C(=O)C(CN(C)C(=O)Oc2ccc(N=Nc3ccc([N+](=O)[O-])cc3S(C)(=O)=O)c3c(NS(=O)(=O)c4cccc(S(N)(=O)=O)c4)cccc23)=C(c2ccccc2)C1=O)C(=O)Oc1ccc(N=Nc2ccc([N+](=O)[O-])cc2S(C)(=O)=O)c2c(NS(=O)(=O)c3cccc(S(N)(=O)=O)c3)cccc12` [IV], the E1/2 is listed as -460 mV. Still for that read-out and setting: the result for `CCCCCCCCCCNS(=O)(=O)c1ccc(C(C)C2=C(CN(C)C(=O)Oc3ccc(N=Nc4ccc([N+](=O)[O-])cc4S(C)(=O)=O)c4c(NS(=O)(=O)c5cccc(S(N)(=O)=O)c5)cccc34)C(=O)C(C(C)c3ccc(S(=O)(=O)NCCCCCCCCCC)cc3)=C(CN(C)C(=O)Oc3ccc(N=Nc4ccc([N+](=O)[O-])cc4S(C)(=O)=O)c4c(NS(=O)(=O)c5cccc(S(N)(=O)=O)c5)cccc34)C2=O)cc1` (stereo not shown) [I] reads -528 mV; that for `CCCCCCCCCCNS(=O)(=O)c1ccc(C(C)C2=C(CN(C)C(=O)Oc3ccc4c(C)cc(=O)oc4c3)C(=O)C(C(C)c3ccc(S(=O)(=O)NCCCCCCCCCC)cc3)=C(CN(C)C(=O)Oc3ccc4c(C)cc(=O)oc4c3)C2=O)cc1` (stereo not shown) [XXII], -528 mV; that for `CCCCCCCCCCNS(=O)(=O)c1ccc(C(C)C2=C(CN(C)C(=O)Oc3ccc(N=Nc4cccc(S(N)(=O)=O)c4)c4c(NS(C)(=O)=O)cccc34)C(=O)C(C(C)c3ccc(S(=O)(=O)NCCCCCCCCCC)cc3)=C(CN(C)C(=O)Oc3ccc(N=Nc4cccc(S(N)(=O)=O)c4)c4c(NS(C)(=O)=O)cccc34)C2=O)cc1` (stereo not shown) [XXI], -528 mV.
